Results on one compound are retold here after patent publication US11268064B2, “Lactobacillus rhamnosus RHT-3201 conjugated to polysaccharide polymer binder, and use thereof for prevention or treatment of atopic diseases” (IL DONG PHARMACEUTICAL CO., LTD., priority 2014, dated 2022).

For data set [1], the system named is severe atopic dermatitis-induced NC/Nga mice. The data set can be described thus: Severe atopic dermatitis model, SCORAD evaluation. In kind it is in vivo. Particulars: baseline, before treatment with test materials; positive control group. The method, then: RHT-3201 according to the present invention was used as a test material, while steroid-based dexamethasone (Sigma Co. Ltd), which is used as a main therapeutic agent for severe atopic dermatitis, was used as a positive control. An extract of Dermatophagoides farina, which is a major species of house dust mite, was used as an atopy inducing material. The extract was purchased in an ointment form from Central Lab. Animal Inc.
The dexamethasone was prepared by being dissolved in ethanol into a concentration of 0.1% (w/v), and RHT-3201 of the present invention was prepared by being dissolved in distilled water to doses of 1×10^8 CFU/0.5 ml/mouse, 1×10^9 CFU/0.5 ml/mouse, and 1×10^10 CFU/0.5 ml/mouse, respectively. […]
In the present evaluation, the severity of atopic dermatitis was expressed as a total of evaluation scores of five items, using SCORAD (SCORing Atopic Dermatitis), which is a generally used method for clinical macroscopic evaluation. […] The scores for the five items (no symptom (score 0), mild symptom (score 1), moderate symptom (score 2), severe symptom (score 3) for each item) were added up, while the evaluation score was determined between the lowest score of 0 (a state in which there is no symptom) and the highest score of 15 (a state in which the symptoms for all items were severe). The severity of the mouse skin lesions was evaluated every week (see FIG. 6). […]

A short description of data set [2]: Body weight measurement during administration. Particulars: administration during eight weeks; dexamethasone transdermal, RHT-3201 oral (FIG. 9). Format: in vivo, NC/Nga mice. The method, then:
The dexamethasone was prepared by being dissolved in ethanol into a concentration of 0.1% (w/v), and RHT-3201 of the present invention was prepared by being dissolved in distilled water to doses of 1×10^8 CFU/0.5 ml/mouse, 1×10^9 CFU/0.5 ml/mouse, and 1×10^10 CFU/0.5 ml/mouse, respectively. All the samples to be administered were prepared on the testing day. The dexamethasone was coated on the skin of a testing subject at 100 μl for each subject twice a week, while RHT-3201 according to the present invention was orally administered at 0.5 ml for each subject using a mouse zonde once a day. Distilled water was administered for a normal group and an atopy control group. The administration was conducted for 8 weeks in all the test groups.
The number of scratching behaviors for 15 minutes was counted once a week from week 1 of administration of a test drug. Only the number of scratching behaviors using a hind leg was counted in order to avoid counting scratching behaviors due to the other causes besides scratching behaviors due to pruritus. Meanwhile, the weight loss tends to occur due to side effects of drugs and stress at the time of inducing severe atopic dermatitis. In order to investigate whether the side effect of weight loss occurs by the test materials of the present invention, the test animals were weighed during the administration period of the test materials.

For `C[C@@H]1C[C@H]2[C@@H]3CCC4=CC(=O)C=C[C@]4(C)[C@@]3(F)[C@@H](O)C[C@]2(C)[C@@]1(O)C(=O)CO` [Dexamethasone, dexamethasone], the “Severe atopic dermatitis score Mean ± SE (n = 6)” value in data set [1] is given as 10.8 ± 0.4. For the same compound, the “change in body weight” value in data set [2] was “weight loss for 4 weeks”.
